Laboratory results published in US9428507B2, “Compounds for the treatment of malaria” (The Broad Institute, Inc., priority 2013, dated 2016).

Tested on: Dd2 strain of P. falciparum
Assay: Activity against the Dd2 strain of P. falciparum (SYBR Green I, 72-h incubation)
Type: cell-based
Details: Plasmodium falciparum, DD2, 72 h, read-out: EC^50 Dd2
Procedure, shortened: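 SYBR Green I signal (ex 485, em 530 nm) measured growth, read after 24 h dark staining in saponin/Triton lysis buffer. Before that, compound-exposed Dd2 cultures (1% parasitemia, 1.0% hematocrit, 0.125% DMSO) grew 72 h at 37° C in low-oxygen gas. Background control: 20 μM mefloquine.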

Compared with COc1ccc2c3c([nH]c2c1)[C@H](CO)N(S(=O)(=O)C(F)(F)F)CC31CCN(C(=O)Nc2ccccc2F)CC1 [Compound 146, (R)-N-(2-fluorophenyl)-1′-(hydroxymethyl)-7′-methoxy-2′-((trifluoromethyl)sulfonyl)-1′,2′,3′,9′-tetrahydrospiro [piperidine-4,4′-pyrido[3,4-b]indole]-1-carboxamide], CC(=O)N1CC2(CCN(C(=O)Nc3ccccc3F)CC2)c2c([nH]c3cc(O)ccc23)[C@@H]1CO [Compound 142, (R)-2′-acetyl-N-(2-fluorophenyl)-7′-hydroxy-1′-(hydroxymethyl)-1′,2′,3′,9′-tetrahydrospiro [piperidine-4,4′-pyrido[3,4-b]indole]-1-carboxamide] is 22-fold higher in EC50: 269 nM for the first, 6040 nM for the second.

First: COc1ccc2c3c([nH]c2c1)[C@H](CO)N(C(C)=O)CC31CCN(C(=O)Nc2c(F)cccc2F)CC1 [Compound 51, (R)-2′-acetyl-N-(2,6-difluorophenyl)-1′-(hydroxymethyl)-7′-methoxy-1′,2′,3′,9′-tetrahydrospiro[piperidine-4,4′-pyrido[3,4-b]indole]-1-carboxamide]
Second: COc1cc2[nH]c3c(c2cc1OC)C1(CCN(C(=O)Nc2ccccc2F)CC1)CN(C(C)=O)[C@H]3CO [Compound 139, (R)-2′-acetyl-N-(2-fluorophenyl)-1′-(hydroxymethyl)-6′,7′-d imethoxy-1′,2′,3′,9′-tetrahydrospiro [piperidine-4,4′-pyrido[3,4-b]indole]-1-carboxamide]
The EC50 of the first is lower: 177 to 235 nM for the first, 5760 nM for the second. The first is the more potent here.

Compared with COc1ccc2c3c([nH]c2c1)[C@@H]1COCC(=O)N1CC31CCN(C(=O)Nc2ccccc2F)CC1 [Compound 47, (R)-N-(2-fluorophenyl)-10-methoxy-4-oxo-1,3,4,6,12,12b-hexahydrospiro[[1,4]oxazino[4′,3′:1 ,2]pyrido[3,4-b]indole-7,4′-piperidine]-1′-carboxamide], COc1ccc2c3c([nH]c2c1)[C@H](CO)NCC31CCN(C(=O)Nc2ccc3c(c2)OCO3)CC1 [Compound 102, (R)-N-(benzo[d] [1,3]dioxol-5-yl)-1′-(hydroxymethyl)-7′-methoxy-1′,2′,3′,9′-tetrahydrospiro [piperidine-4,4′-pyrido[3,4-b]indole]-1-carboxamide] is lower in EC50: 2230 to 3230 nM for the first, 490 nM for the second. The second is the more potent here.

CCC(=O)N1CCC2(CC1)CN(S(=O)(=O)c1ccccc1)[C@@H](CO)c1[nH]c3cc(OC)ccc3c12 [Compound 116, (R)-1-(1′-(hydroxymethyl)-7′-methoxy-2′-(phenylsulfonyl)-1′,2′,3′,9′-tetrahydrospiro [piperidine-4,4′-pyrido[3,4-b]indol]-1-yl) propan-1-one] and COc1ccc(S(=O)(=O)N2CCC3(CC2)CN(Cc2ccncc2)[C@H](CO)c2[nH]c4cc(OC)ccc4c23)cc1 [Compound 119, (S)-(7′-methoxy-1-((4-methoxyphenyl)sulfonyl)-2′-(pyridin-4-ylmethyl)-1′,2′,3′,9′-tetrahydrospiro [piperidine-4,4′-pyrido[3,4-b]indol]-1′-yl) methanol] are within 1.5-fold of each other in EC50: 1470 nM for the first, 1720 nM for the second.

COc1ccc2c3c(n(C)c2c1)[C@H](CO)N(C(=O)Nc1ccc(F)cc1)CC31CCN(C(=O)c2ccc3c(c2)OCO3)CC1 [Compound 131, (R)-1-(benzo[d] [1,3]dioxole-5-carbonyl)-N-(4-fluorophenyl)-1′-(hydroxymethyl)-7′-methoxy-9′-methyl-3′,9′-dihydrospiro [piperidine-4,4′-pyrido[3,4-b]indole]-2′(1′H)-carboxamide] and COc1ccc2c3c(n(C)c2c1)[C@H](CO)N(CC1CCOCC1)CC31CCN(Cc2nccs2)CC1 [Compound 112, (R)-(7′-methoxy-9′-methyl0-2′-((tetrahydro-2H-pyran-4-yl)methyl)-1-(thiazol-2-ylmethyl)-1′,2′,3′,9′-tetrahydrospiro [piperidine-4,4′-pyrido [3,4-b]indol]-1′-yl) methanol] are within 1.5-fold of each other in EC50: 892 nM for the first, 1100 nM for the second.
